From ChEMBL document CHEMBL1132778, “Synthesis of derivatives of NK109, 7-OH benzo[c]phenanthridine alkaloid, and evaluation of their cytotoxicities and reduction-resistant properties” (Bioorg Med Chem Lett, 2000)

Test system: HeLa
Test: Evaluated for cytotoxicity against HeLa S3 cells
Format: functional, cell-based
Conditions: Homo sapiens

Which IC50 does the source give for `C[n+]1cc2c(O)c(OCc3ccccc3)ccc2c2ccc3cc4c(cc3c21)OCO4` here?
Its IC50 is 17000 nM.

`CCC[n+]1cc2c(O)c(OC)ccc2c2ccc3cc4c(cc3c21)OCO4` was tested. Which IC50 did it give?
The IC50 was 400 nM.

How did the IC50 turn out when `C=CCOc1ccc2c(c[n+](C)c3c4cc5c(cc4ccc23)OCO5)c1O` was run?
The IC50 was 710 nM.

Which IC50 does the source give for `CCCc1c2c(O)c(OC)ccc2c2ccc3cc4c(cc3c2[n+]1C)OCO4` here?
Its IC50 is 2900 nM.

Which IC50 does the source give for `COc1ccc(-c2c3c(O)c(OC)ccc3c3ccc4cc5c(cc4c3[n+]2C)OCO5)cc1` here?
Its IC50 is 16000 nM.

For `CC(=O)OCCOc1ccc2c(c[n+](C)c3c4cc5c(cc4ccc23)OCO5)c1O`, which IC50 is on record?
Its IC50 is 480 nM.

With `CC[n+]1cc2c(O)c(OC)ccc2c2ccc3cc4c(cc3c21)OCO4` as the compound, how does the IC50 read?
Its IC50 is 400 nM.

With `COC(=O)COc1ccc2c(c[n+](C)c3c4cc5c(cc4ccc23)OCO5)c1O` as the compound, how does the IC50 read?
The IC50 was 15000 nM.

With `C=CC[n+]1cc2c(O)c(OC)ccc2c2ccc3cc4c(cc3c21)OCO4` as the compound, how does the IC50 read?
The IC50 was 760 nM.

`C[n+]1cc2c(O)c(OCC(=O)O)ccc2c2ccc3cc4c(cc3c21)OCO4` was tested. Which IC50 did it give?
Its IC50 is greater than 24000 nM.

For `CCc1c2c(O)c(OC)ccc2c2ccc3cc4c(cc3c2[n+]1C)OCO4`, which IC50 is on record?
The IC50 was 11000 nM.

With `CC(C)Oc1ccc2c(c[n+](C)c3c4cc5c(cc4ccc23)OCO5)c1O` as the compound, how does the IC50 read?
Its IC50 is 2400 nM.

Which IC50 does the source give for `COc1ccc2c(c[n+](CC(=O)O)c3c4cc5c(cc4ccc23)OCO5)c1O` here?
Its IC50 is greater than 24000 nM.

How did the IC50 turn out when `COc1ccc2c(c1O)c(C)[n+](C)c1c3cc4c(cc3ccc21)OCO4` was run?
Its IC50 is 2900 nM.

For `COc1ccc2c(c1O)c(-c1ccccc1)[n+](C)c1c3cc4c(cc3ccc21)OCO4`, which IC50 is on record?
The IC50 was 17000 nM.

How did the IC50 turn out when `C[n+]1cc2c(O)c(OCCO)ccc2c2ccc3cc4c(cc3c21)OCO4` was run?
Its IC50 is 520 nM.

With `COc1ccc2c(c1O)c(C1CC1)[n+](C)c1c3cc4c(cc3ccc21)OCO4` as the compound, how does the IC50 read?
Its IC50 is 6500 nM.

For `C[n+]1cc2c(O)c(OCC(N)=O)ccc2c2ccc3cc4c(cc3c21)OCO4`, which IC50 is on record?
The IC50 was 1900 nM.

`COc1ccc2c(c[n+](C)c3c4cc5c(cc4ccc23)OCO5)c1O` [FAGARIDINE] was tested. Which IC50 did it give?
Its IC50 is 320 nM.
